Results from US8222414B2, “Indole compounds as an inhibitor of cellular necrosis” (LG Life Sciences Ltd., priority 2007, dated 2012).
pEC50: −log10 of the molar value.

These compounds were tested on primary hepatocytes isolated from rats (assay: Cell protective effects against doxorubicin in hepatocytes (WST-1 cell viability)). Conditions: Hepatocyte; primary rat hepatocytes pretreated with compound for 30 min, then doxorubicin; viability by WST-1 after 24-48 h.
Type: cell-based
Method: Various endogenous/exogenous attacks on the cells trigger the mechanisms of cell death which is broadly classified into two types, i.e. apoptosis or necrosis. Using these cell death mechanisms, in the present experimental example, primacy hepatocytes isolated from rats were treated with drugs which were clinically shown to result in serious side-effects of hepatocyte toxicity or various chemicals which derive cell death, and the compounds synthesized in the Examples were estimated for their hepatocyte protective effects, after 24-48 h. The substances used to derive hepatocyte death include CCl4, ActD, H2O2, doxorubicin, anti-Fas Ab/Actinomycin D, acetaminophen, EtOH, CdCl2, palmitate, stearate, cyclophosphamide, terfenadine, diclofenac, simvastatin, and adefovir. Primary hepatocytes were isolated using the method of Seglen P O (Experimental Cell Research 74 (1972) pp 450-454). Briefly, hepatocytes were isolated according to the two-step collagenase perfusion method, and dead cells were removed by low speed (500 rpm) centrifugation for 10 min using percoll gradient (Kreamer B L etc, In Vitro Cellular & Developmental Biology 22 (1986) pp 201-211). During this step, the viability of cells was maintained 90% or above. The cells were suspended in HepatoZYME media (Gibco BRL), and the number of cells was counted. 1.5×10^4 cells in 100 μl were placed into the collagen-coated 96-well plate (BD biocoat), and adhered on the bottom for 3-4 h.
In order to assess the hepatocyte protective effect, above adhered cells were pretreated with the Example compounds for 30 min. At this time, the concentration of the Example compounds were serially diluted by 2-fold or 3-fold over 5 steps starting from 30 uM, 10 uM or 1 uM depending on the experiments, and the final concentration of DMSO was adjusted to 0.2%. 30 min after the treatment by compounds, cells were treated by the substances deriving hepatocyte death or hepatotoxic drugs at the concentrations indicated in Table 1. After 24-48 h, the viability of cells was determined to estimate the hepatocyte protective effects. The viability of cells was determined using WST-1 (MK-400, […]) method by the absorbance at 440 nm. Hepatocyte protective effects of the Example compounds were represented by “EC50” which was calculated from measured values. “EC50” herein means the concentration of the compound at which 50% of maximum protective effect is observed in the experiment.

| Compound | pEC50 |
| --- | --- |
| Cc1cc(NCC2CC2)c2[nH]c(C3=N[C@@H](CC(=O)O)CS3)cc2c1 [Example 21, [(S)-2-(5-methyl-7-cyclopropylmethylamino-1H-indol-2-yl)-4,5-dihydro-thiazol-4-yl]-acetic acid] | 6.52 |
| NC[C@@H]1CSC(c2cc3cccc(NC4CCCC4)c3[nH]2)=N1 [Example 173, [2-((R)-4-aminomethyl-4,5-dihydro-thiazol-2-yl)-1H-indol-7-yl]-cyclopentyl-amine] | 5.70 |
| CCOC(=O)CC[C@@H]1CSC(c2cc3cc(F)cc(NC4CCCC4)c3[nH]2)=N1 [Example 108, 3-[(R)-2-(5-fluoro-7-cyclopentylamino-1H-indol-2-yl)-4,5-dihydro-thiazol-4-yl]-propionic acid ethyl ester] | > 6.30 |
| c1ccc(Oc2cc(NC3CCCC3)c3[nH]c(C4=N[C@H](CCN5CCCC5)CS4)cc3c2)cc1 [Example 246, (5-Phenoxy-2-{(R)-4-[pyrrolidin-1-yl-ethyl]-4,5-dihydro-thiazol-2-yl}-1H-indol-7-yl)-cyclopentyl-amine] | 6.46 |
| CCOP(=O)(CC[C@H]1CSC(c2cc3cc(C)cc(NCC4CCOCC4)c3[nH]2)=N1)OCC [Example 244, (5-Methyl-2-{(S)-4-[2-diethoxyphosphoryl-ethyl]-4,5-dihydro-thiazol-2-yl}-1H-indol-7-yl)-(tetrahydropyran-4-yl)methyl-amine] | 6.71 |
| O=C(O)C[C@@H]1CSC(c2cc3cc(F)cc(NC4CCCC4)c3[nH]2)=N1 [Example 71, [(R)-2-(5-fluoro-7-cyclopentylamino-1H-indol-2-yl)-4,5-dihydro-thiazol-4-yl]-acetic acid] | 5.96 |
| CCOc1cc(NC2CCCC2)c2[nH]c(C3=N[C@@H](CC(=O)O)CS3)cc2c1 [Example 47, [(S)-2-(5-ethoxy-7-cyclopentylamino-1H-indol-2-yl)-4,5-dihydro-thiazol-4-yl]-acetic acid] | 6.44 |
| O=C1c2ccccc2C(=O)N1Cc1cc(NC2CCCC2)c2[nH]c(C3=N[C@H](CO)CS3)cc2c1 [Example 64, [(R)-2-(5-(isoindol-1,3-dion-2-yl)methyl-7-cyclopentylamino-1H-indol-2-yl)-4,5-dihydro-thiazol-4-yl]-methanol] | 6.27 |
| O=C(O)C[C@H]1CSC(c2cc3cccc(NCC4CCCCO4)c3[nH]2)=N1 (stereo partly drawn) [Example 10, 2-[(S)-2-(7-(tetrahydropyran-2-yl)methylamino-1H-indol-2-yl)-4,5-dihydro-thiazol-4-yl]-acetic acid] | 6.22 |
| Cc1cc(NC2CCCC2)c2[nH]c(C3=N[C@@H](CC(=O)O)CO3)cc2c1 [Example 119, [(S)-2-(5-methyl-7-cyclopentylamino-1H-indol-2-yl)-4,5-dihydro-oxazol-4-yl]-acetic acid] | 6.77 |
| O=C(O)C[C@@H]1CSC(c2cc3cc(Oc4cccnc4)cc(NC4CCOCC4)c3[nH]2)=N1 [Example 90, [(R)-2-(5-(pyridin-3-yl)oxy-7-(tetrahydropyran-4-yl)amino-1H-indol-2-yl)-4,5-dihydro-thiazol-4-yl]-acetic acid] | 5.10 |
| OC[C@@H]1CSC(c2cc3cccc(NC4CCCC4)c3[nH]2)=N1 [Example 2, [(R)-2-(7-cyclopentylamino-1H-indol-2-yl)-4,5-dihydro-1,3-thiazol-4-yl]-methanol] | 7.00 |
| FCc1nnc2n1CCN(CC[C@H]1CSC(c3cc4cc(Oc5ccccc5)cc(NC5CCCC5)c4[nH]3)=N1)C2 [Example 232, Cyclopentyl-(5-phenoxy-2-{(S)-4-[2-(3-fluoromethyl-5,6-dihydro-8H-[1,2,4]triazolo[4,3-a]pyrazin-7-yl)-ethyl]-4,5-dihydro-thiazol-2-yl}-1H-indol-7-yl)-amine] | 6.62 |
| O=C(O)C[C@H]1CSC(c2cc3cc(Cl)cc(NCC4CCOCC4)c3[nH]2)=N1 [Example 18, [(S)-2-(5-chloro-7-(tetrahydropyran-4-yl)methylamino-1H-indol-2-yl)-4,5-dihydro-thiazol-4-yl]-acetic acid] | 5.62 |
| CC(=O)N1CCC(Nc2cc(C)cc3cc(C4=N[C@@H](CC(=O)O)CS4)[nH]c23)C1 (stereo partly drawn) [Example 13, [(S)-2-(5-methyl-7-(1-acetylpyrrolidin-3-yl)amino-1H-indol-2-yl)-4,5-dihydro-thiazol-4-yl]-acetic acid] | 5.95 |
| Clc1cc(NC2CCOCC2)c2[nH]c(C3=N[C@@H](CCN4CCN(c5ccccn5)CC4)CS3)cc2c1 [Example 254, (5-Chloro-2-{(S)-4-[1-(pyridin-2-yl)piperazin-4-yl-ethyl]-4,5-dihydro-thiazol-2-yl}-1H-indol-7-yl)-(tetrahydropyran-4-yl)-amine] | 6.00 |
| CCCOc1cc(NC2CCCC2)c2[nH]c(C3=N[C@H](CC(=O)O)CS3)cc2c1 [Example 84, [(R)-2-(5-propyloxy-7-cyclopentylamino-1H-indol-2-yl)-4,5-dihydro-thiazol-4-yl]-acetic acid] | 5.80 |
| CC(=O)N1CC[C@@H](Nc2cccc3cc(C4=N[C@H](CO)CS4)[nH]c23)C1 [Example 43, {(R)-2-[7-((3R)-1-acetylpyrrolidin-3-yl)amino-1H-indol-2-yl]-4,5-dihydro-1,3-thiazol-4-yl}-methanol] | 5.00 to 6.00 |
| c1ccc(Oc2cc(NC3CCCC3)c3[nH]c(C4=N[C@@H](CCN5CCNCC5)CS4)cc3c2)cc1 [Example 230, (5-Phenoxy-2-{(S)-4-[(piperazin-1-yl)-ethyl]-4,5-dihydro-thiazol-2-yl}-1H-indol-7-yl)-cyclopentyl-amine] | < 6.49 |
| O=C(O)C[C@H]1COC(c2cc3cc(Cl)cc(NC4CCCC4)c3[nH]2)=N1 [Example 121, [(S)-2-(5-chloro-7-cyclopentylamino-1H-indol-2-yl)-4,5-dihydro-oxazol-4-yl]-acetic acid] | 6.33 |
| O=C(O)C[C@H]1CSC(c2cc3cccc(NC4CCOCC4)c3[nH]2)=N1 [Example 11, [(S)-2-(7-(tetrahydropyran-4-yl)amino-1H-indol-2-yl)-4,5-dihydro-thiazol-4-yl]-acetic acid] | 5.55 |
| Cc1cc(NCC2CCCC2)c2[nH]c(C3=N[C@@H](CC(=O)O)CS3)cc2c1 [Example 23, [(S)-2-(5-methyl-7-cyclopentylmethylamino-1H-indol-2-yl)-4,5-dihydro-thiazol-4-yl]-acetic acid] | 6.85 |
| Clc1cc(NC2CCCC2)c2[nH]c(C3=N[C@H](CCCN4CCOCC4)CS3)cc2c1 [Example 222, (5-Chloro-2-{(R)-4-[(morpholin-4-yl)-propyl]-4,5-dihydro-thiazol-2-yl}-1H-indol-7-yl)-cyclopentyl-amine] | 6.74 |
| CCOc1cc(NC2CCCC2)c2[nH]c(C3=N[C@H](CCC(=O)O)CS3)cc2c1 [Example 115, 3-[(R)-2-(5-ethoxy-7-cyclopentylamino-1H-indol-2-yl)-4,5-dihydro-thiazol-4-yl]-propionic acid] | > 6.00 |
| O=C1CN(CC[C@H]2CSC(c3cc4cccc(NC5CCOCC5)c4[nH]3)=N2)CCN1 [Example 182, (2-{(S)-4-[(2-oxopiperazin-4-yl)-ethyl]-4,5-dihydro-thiazol-2-yl}-1H-indol-7-yl)-(tetrahydro-pyran-4-yl)-amine] | 6.43 |
| Cc1cc(NC2CCN(C(=O)C(F)(F)F)CC2)c2[nH]c(C3=N[C@@H](CC(=O)O)CS3)cc2c1 [Example 9, [(S)-2-(5-methyl-7-(1-trifluoroacetylpiperidin-4-yl)amino-1H-indol-2-yl)-4,5-dihydro-thiazol-4-yl]-acetic acid] | < 5.70 |
| Cc1cc(NC2CCC(F)(F)CC2)c2[nH]c(C3=N[C@@H](CCN4CCNC(=O)C4)CS3)cc2c1 [Example 250, (5-Methyl-2-{(S)-4-[2-oxopiperazin-4-yl-ethyl]-4,5-dihydro-thiazol-2-yl}-1H-indol-7-yl)-4,4-difluorocyclohexyl-amine] | 7.05 |

Same assay, conditions: primary rat hepatocytes pretreated with compound for 30 min, then doxorubicin; viability by WST-1 after 24-48 h

| Compound | pEC50 |
| --- | --- |
| CS(=O)(=O)CC[C@@H]1CSC(c2cc3cccc(NC4CCOCC4)c3[nH]2)=N1 [Example 218] | 6.59 |
| CN(c1cc(F)cc2cc(C3=N[C@H](CO)CS3)[nH]c12)C1CCCC1 [Example 45, {(R)-2-[7-(methyl-cyclopentyl)amino-5-fluoro-1H-indol-2-yl]-4,5-dihydro-1,3-thiazol-4-yl}-methanol] | 5.88 |
| Fc1ccccc1N1CCN(CC[C@H]2CSC(c3cc4cc(Oc5ccccc5)cc(NC5CCCC5)c4[nH]3)=N2)CC1 [Example 236, (5-Phenoxy-2-{(S)-4-[(2-fluorophenyl)piperazine-ethyl]-4,5-dihydro-thiazol-2-yl}-1H-indol-7-yl)-cyclopentyl-amine] | 6.80 |
| O=C1CN(CC[C@H]2CSC(c3cc4cc(Oc5ccccc5)cc(NC5CCCC5)c4[nH]3)=N2)CCN1 [Example 233] | 6.57 |
| O=C(C1CCCO1)N1CCN(CC[C@H]2CSC(c3cc4cc(Oc5ccccc5)cc(NC5CCCC5)c4[nH]3)=N2)CC1 (some centres unmarked) [Example 234] | 7.05 |
